The target of the assay is T1, oestrogen receptor alpha (ERα) (Homo sapiens, UniProt P03372).
T1 construct: gene ESR1
Put plainly: HitHunter Estrogen Assay Kit competitive binding (enzyme fragment complementation); supported by ERE-luciferase inhibition in MCF-7 cells.

We go through 1 molecule from PMC5571522, “Cryptotanshinone inhibition of mammalian target of rapamycin pathway is dependent on oestrogen receptor alpha in breast cancer” (Journal of Cellular and Molecular Medicine, 2017).

pEC50: −log10 of the molar value.

The pEC50 is the negative decadic logarithm of the EC50, by convention in mol/L. Low readings indicate a large EC50, high ones a small EC50.

T1 sequence (P03372 whole entry): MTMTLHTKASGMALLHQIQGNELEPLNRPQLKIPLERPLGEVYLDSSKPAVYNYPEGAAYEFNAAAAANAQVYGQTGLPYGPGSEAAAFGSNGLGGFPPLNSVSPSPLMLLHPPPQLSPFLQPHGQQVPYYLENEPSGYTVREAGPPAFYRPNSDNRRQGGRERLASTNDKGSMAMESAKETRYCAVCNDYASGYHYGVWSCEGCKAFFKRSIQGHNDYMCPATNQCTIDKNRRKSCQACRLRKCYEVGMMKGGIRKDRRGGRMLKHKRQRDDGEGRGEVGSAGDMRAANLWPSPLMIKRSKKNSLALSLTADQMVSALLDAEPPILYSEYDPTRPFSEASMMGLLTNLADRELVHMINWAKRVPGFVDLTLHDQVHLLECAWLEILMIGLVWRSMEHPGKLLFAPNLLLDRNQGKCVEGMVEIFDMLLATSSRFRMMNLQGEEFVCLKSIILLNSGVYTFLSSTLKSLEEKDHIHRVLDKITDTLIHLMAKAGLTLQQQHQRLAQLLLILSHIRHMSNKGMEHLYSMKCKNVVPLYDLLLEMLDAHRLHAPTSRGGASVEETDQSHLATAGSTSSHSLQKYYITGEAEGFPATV

As for `C[C@H]1COC2=C1C(=O)C(=O)c1c2ccc2c1CCCC2(C)C` [CPT, Cryptotanshinone], the pEC50 was ~8.01.
